Measured values as given in US20210283139A1, “BIFUNCTIONAL MOLECULES FOR TARGETING UCHL5” (AMPHISTA THERAPEUTICS LTD, priority 2018, published 2021).
Each block holds one molecule with its values, some of them ahead of it.

Assays:
Type in all cases: cell-based
MV4-11 cells = assay: Anti-proliferative effect, CellTiter-Glo assay; conditions: MV4-11, CellTiter-Glo, 72 h incubation, 5 μM and below
Description: The anti-proliferative effects of representative compounds were measured using the CellTiter-Glo assay (Promega). MV4-11 cells were incubated in a sterile, white, clear-bottomed 384-well cell-culture microplate (Greiner Bio-one), at 2× concentration in RPMI media and a volume of 25 μl. The next day, test compounds were serially diluted in RPMI media to 2× concentration, then added to cells to make a final volume of 50 μl. After a 72 h incubation 25 μl of CellTiter-Glo reagent was added to each well. Following 15 minute incubation the luminescence signal was read on a Pherastar FS. The final concentration of assay components are as follows: 3×10^5 cells/mL, 0.05% DMSO, 5 μM and below compound. Data (FIG. 11) was processed and dose-response curves generated using Prism 8 (Graphpad).

Brd2 [1] = biological target: T1, Brd2 (Homo sapiens, UniProt P25440); assay: Time-dependent BET degradation, immunoblot, HEK293 cells; design: endogenous in cells; host or cells: HEK293; conditions: HEK293, Brd2, 1 μM, timecourse 0-8 h
T1 sequence (P25440 whole entry): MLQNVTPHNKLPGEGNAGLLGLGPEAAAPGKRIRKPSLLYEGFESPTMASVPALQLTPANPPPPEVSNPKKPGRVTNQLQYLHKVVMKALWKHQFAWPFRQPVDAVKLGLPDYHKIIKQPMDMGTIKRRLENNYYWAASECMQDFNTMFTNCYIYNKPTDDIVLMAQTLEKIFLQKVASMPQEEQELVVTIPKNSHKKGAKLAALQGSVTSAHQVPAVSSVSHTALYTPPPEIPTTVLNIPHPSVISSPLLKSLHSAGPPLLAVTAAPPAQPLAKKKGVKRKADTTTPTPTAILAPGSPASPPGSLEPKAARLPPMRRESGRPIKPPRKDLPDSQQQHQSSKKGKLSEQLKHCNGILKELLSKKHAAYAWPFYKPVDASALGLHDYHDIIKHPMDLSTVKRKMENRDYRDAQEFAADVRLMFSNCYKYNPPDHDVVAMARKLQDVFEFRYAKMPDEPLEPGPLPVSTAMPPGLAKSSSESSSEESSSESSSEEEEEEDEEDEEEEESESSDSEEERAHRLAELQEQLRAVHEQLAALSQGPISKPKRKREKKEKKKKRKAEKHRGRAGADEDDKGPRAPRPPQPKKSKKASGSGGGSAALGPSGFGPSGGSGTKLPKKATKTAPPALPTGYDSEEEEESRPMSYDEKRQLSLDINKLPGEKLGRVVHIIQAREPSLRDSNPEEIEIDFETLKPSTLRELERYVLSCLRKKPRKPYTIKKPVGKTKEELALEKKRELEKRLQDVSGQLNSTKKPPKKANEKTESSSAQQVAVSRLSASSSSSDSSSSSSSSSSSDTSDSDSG
Description: (§1) Cell culture. HeLa (CCL-2) and HEK293 (CRL-1573) cells were purchased from ATCC and cultured in DMEM medium (Gibco) supplemented with 10% FBS, 100 μg/mL penicillin/streptomycin and L-glutamine. Cells were grown at 37° C. and 5% CO2, and were kept no longer than 30 passages. All cell lines were routinely tested for mycoplasma contamination using MycoAlert kit from Lonza.
(§2) Immunoblotting. proteins were separated by SDS-PAGE on NuPage 4-12% Bis-Tris gels, followed by transfer to Amersham Protran 0.45 NC nitrocellulose membrane (GE Healthcare) using wet transfer. Membranes were blocked using 5% w/v milk in Tris-buffered saline (TBS) with 0.1% Tween-20. Blots were probed (overnight at 4° C.) using anti-Brd2 (Abcam ab139690, 1:2,000 dilution), anti-Brd3 (Abcam ab50818, 1:500 dilution), and anti-Brd4 (Abcam ab128874, 1:1,000 dilution) primary antibodies, as appropriate. The next day, blots were washed with TBST and incubated (1 hr at RT) with anti-Tubulin hFAB-rhodamine (BioRad, 12004166) primary antibody, and either anti-rabbit IRDye 800CW (Licor 1:10,000 dilution) or anti-mouse IRDye 800CW (Licor 1:10,000 dilution) secondary antibody. Blots were developed using a Bio-Rad ChemiDoc MP Imaging System, and band quantification was performed using Image Studio software (LiCor). Band intensities were normalized to the tubulin loading control and reported as % of the average 0.1% DMSO vehicle intensity. Degradation data was plotted and analysed using Prism (Graphpad, version 8).
(§3) HeLa (3×10^5) and HEK293 (0.5×10^6) cells were seeded in standard 6-well plates (2 mL medium) overnight before treatment with compounds at 1 μM concentration, with a final DMSO concentration of 0.1% v/v. After incubation for the desired time (0-8 h), cells were washed with DPBS (Gibco) and lysed using 85 μL RIPA buffer (Sigma-Aldrich) supplemented with cOmplete Mini EDTA-free protease inhibitor cocktail (Roche) and benzonase. Lysates were clarified by centrifugation (20,000 g, 10 min, 4° C.) and the total protein content of the supernatant was quantified using a Bradford colorimetric assay. Samples were prepared using equal amounts of total protein and LDS sample buffer (Invitrogen).
(§4) Representative blots in FIG. 4 show depletion of Brd2, Brd3 and Brd4 protein levels following 1 μM treatment at various time points with representative compounds. Band intensities were normalized to the β-tubulin loading control and reported as % of the average 0.1% DMSO vehicle intensity, with each point representing mean±SEM of two independent experiments (n=2). Degradation data was plotted and analysed using Prism (Graphpad, version 8).
(§5) T½ (h) is the time required to deplete 50% of the protein relative to DMSO

Brd3 [2] = biological target: T2, Brd3 (Homo sapiens, UniProt Q15059); assay: as above; design: endogenous in cells; host or cells: HEK293; conditions: HEK293, Brd3, 1 μM, timecourse 0-8 h
T2 sequence (Q15059 whole entry): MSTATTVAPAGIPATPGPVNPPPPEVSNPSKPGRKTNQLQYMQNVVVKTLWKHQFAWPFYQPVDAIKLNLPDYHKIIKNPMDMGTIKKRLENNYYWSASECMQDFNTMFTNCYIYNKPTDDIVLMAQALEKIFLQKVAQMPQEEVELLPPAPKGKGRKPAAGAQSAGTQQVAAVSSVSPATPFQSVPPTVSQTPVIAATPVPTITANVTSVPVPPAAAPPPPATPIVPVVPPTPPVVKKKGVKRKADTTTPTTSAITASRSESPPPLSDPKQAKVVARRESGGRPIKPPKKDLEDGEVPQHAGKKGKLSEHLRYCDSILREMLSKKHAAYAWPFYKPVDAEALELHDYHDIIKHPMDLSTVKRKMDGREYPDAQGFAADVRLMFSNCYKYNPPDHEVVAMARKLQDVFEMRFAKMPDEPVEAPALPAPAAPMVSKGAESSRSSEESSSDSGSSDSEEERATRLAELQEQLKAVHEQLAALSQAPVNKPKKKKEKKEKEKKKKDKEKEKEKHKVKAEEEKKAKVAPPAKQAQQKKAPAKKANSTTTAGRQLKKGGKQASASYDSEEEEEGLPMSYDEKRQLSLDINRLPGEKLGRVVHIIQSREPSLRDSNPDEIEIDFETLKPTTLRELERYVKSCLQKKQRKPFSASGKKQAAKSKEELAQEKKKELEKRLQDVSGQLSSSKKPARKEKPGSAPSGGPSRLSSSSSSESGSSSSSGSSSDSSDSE
Description: as §1, §2, §3, §4, §5

Brd4 (S) [3] = biological target: T3, Brd4 (S) (Homo sapiens, UniProt O60885); assay: Time-dependent BET degradation, immunoblot, HeLa cells; design: dose or concentration left out as unconfirmed; conditions: timecourse 0-8 h
T3 construct: endogenous in cells; host or cells: HEK293, HeLa
Description: as §1, §2, §3, §4, §5

Brd4 (L) [4] = biological target: T4, Brd4 (L) (Homo sapiens, UniProt O60885); assay: as above; design: dose or concentration left out as unconfirmed; conditions: timecourse 0-8 h
T4 construct: endogenous in cells; host or cells: HEK293, HeLa
Description: as §1, §2, §3, §4, §5

Brd2 [5] = biological target: T1, Brd2; assay: as above; design: endogenous in cells; host or cells: HeLa; conditions: Brd2, 1 μM, timecourse 0-8 h
Description: as §1, §2, §3, §4, §5

Brd3 [6] = biological target: T2, Brd3; assay: as above; design: endogenous in cells; host or cells: HeLa; conditions: Brd3, 1 μM, timecourse 0-8 h
Description: as §1, §2, §3, §4, §5

Brd2 [7] = biological target: T1, Brd2; assay: Concentration-dependent BET degradation, immunoblot, HEK293 cells; design: endogenous in cells; host or cells: HEK293; conditions: HEK293, Brd2, 6 h treatment, 1 nM-10 μM
Description: as §1, §2
as §3, with “(5×10^5)” for “(3×10^5)”, “(1×10^6)” for “(0.5×10^6)”, “the desired concentration (1 nM-10 μM),” for “1 μM concentration,”, “6 h treatment time,” for “incubation for the desired time (0-8 h),”, “(20,000g,” for “(20,000 g,”, “(Invitrogen.” for “(Invitrogen).”
(§6) Representative blots in FIG. 3 show depletion of Brd2, Brd3 and Brd4 protein levels following treatment with increasing concentrations of representative compounds. Band intensities were normalized to the β-tubulin loading control and reported as % of the average 0.1% DMSO vehicle intensity, with each point representing mean±SEM of two independent experiments (n=2). Degradation data was plotted and analysed using Prism (Graphpad, version 8)

Brd3 [8] = biological target: T2, Brd3; assay: as above; design: endogenous in cells; host or cells: HEK293; conditions: HEK293, Brd3, 6 h treatment, 1 nM-10 μM
Description: as §1, §2
as §3, with “(5×10^5)” for “(3×10^5)”, “(1×10^6)” for “(0.5×10^6)”, “the desired concentration (1 nM-10 μM),” for “1 μM concentration,”, “6 h treatment time,” for “incubation for the desired time (0-8 h),”, “(20,000g,” for “(20,000 g,”, “(Invitrogen.” for “(Invitrogen).”
as §6

Brd2 [9] = biological target: T1, Brd2; assay: Concentration-dependent BET degradation, immunoblot, HeLa cells; design: endogenous in cells; host or cells: HeLa; conditions: Brd2, 6 h treatment, 1 nM-10 μM
Description: as §1, §2
as §3, with “(5×10^5)” for “(3×10^5)”, “(1×10^6)” for “(0.5×10^6)”, “the desired concentration (1 nM-10 μM),” for “1 μM concentration,”, “6 h treatment time,” for “incubation for the desired time (0-8 h),”, “(20,000g,” for “(20,000 g,”, “(Invitrogen.” for “(Invitrogen).”
as §6

Brd3 [10] = biological target: T2, Brd3; assay: as above; design: endogenous in cells; host or cells: HeLa; conditions: Brd3, 6 h treatment, 1 nM-10 μM
Description: as §1, §2
as §3, with “(5×10^5)” for “(3×10^5)”, “(1×10^6)” for “(0.5×10^6)”, “the desired concentration (1 nM-10 μM),” for “1 μM concentration,”, “6 h treatment time,” for “incubation for the desired time (0-8 h),”, “(20,000g,” for “(20,000 g,”, “(Invitrogen.” for “(Invitrogen).”
as §6

Brd4 (S) [11] = biological target: T3, Brd4 (S); assay: Concentration-dependent BET degradation, immunoblot, HEK293 cells; conditions: 6 h treatment, 1 nM-10 μM
Description: as §1, §2
as §3, with “(5×10^5)” for “(3×10^5)”, “(1×10^6)” for “(0.5×10^6)”, “the desired concentration (1 nM-10 μM),” for “1 μM concentration,”, “6 h treatment time,” for “incubation for the desired time (0-8 h),”, “(20,000g,” for “(20,000 g,”, “(Invitrogen.” for “(Invitrogen).”
as §6

Brd4 (L) [12] = biological target: T4, Brd4 (L); assay: as above; conditions: 6 h treatment, 1 nM-10 μM
Description: as §1, §2
as §3, with “(5×10^5)” for “(3×10^5)”, “(1×10^6)” for “(0.5×10^6)”, “the desired concentration (1 nM-10 μM),” for “1 μM concentration,”, “6 h treatment time,” for “incubation for the desired time (0-8 h),”, “(20,000g,” for “(20,000 g,”, “(Invitrogen.” for “(Invitrogen).”
as §6

Brd4 (S) [13] = biological target: T3, Brd4 (S); assay: Concentration-dependent BET degradation, immunoblot, HeLa cells; conditions: 6 h treatment, 1 nM-10 μM
Description: as §1, §2
as §3, with “(5×10^5)” for “(3×10^5)”, “(1×10^6)” for “(0.5×10^6)”, “the desired concentration (1 nM-10 μM),” for “1 μM concentration,”, “6 h treatment time,” for “incubation for the desired time (0-8 h),”, “(20,000g,” for “(20,000 g,”, “(Invitrogen.” for “(Invitrogen).”
as §6

Brd4 (L) [14] = biological target: T4, Brd4 (L); assay: as above; conditions: 6 h treatment, 1 nM-10 μM
Description: as §1, §2
as §3, with “(5×10^5)” for “(3×10^5)”, “(1×10^6)” for “(0.5×10^6)”, “the desired concentration (1 nM-10 μM),” for “1 μM concentration,”, “6 h treatment time,” for “incubation for the desired time (0-8 h),”, “(20,000g,” for “(20,000 g,”, “(Invitrogen.” for “(Invitrogen).”
as §6

Brd4 (S) [15] = biological target: T3, Brd4 (S); assay: Time-dependent BET degradation, immunoblot, HEK293 cells; design: dose or concentration left out as unconfirmed; conditions: timecourse 0-8 h
Description: as §1, §2, §3, §4, §5

Brd4 (L) [16] = biological target: T4, Brd4 (L); assay: as above; design: dose or concentration left out as unconfirmed; conditions: timecourse 0-8 h
Description: as §1, §2, §3, §4, §5

[17] = read-out: Dmax (%) maximum degradation observed

Structure (SMILES): CCC[C@H](NC(=O)/C(C#N)=C/c1cccc(Br)n1)c1ccccc1 [Degrasyn, reference compound]
cytotoxicity profile (anti-proliferative effect) (MV4-11 cells): significantly less cytotoxicity

Dmax at 1 µM (Brd2 [1]): 100%
Dmax at 1 µM (Brd3 [2]): 100%
Dmax (Brd4 (S) [3]): 100%
Dmax (Brd4 (L) [4]): 100%
Dmax at 1 µM (Brd2 [5]): 100%
Dmax at 1 µM (Brd3 [6]): 100%
DC50 (Brd2 [7]): ≤ 50 nM
Dmax (Brd2 [7]; [17]): 51 to 70%
DC50 (Brd3 [8]): ≤ 50 nM
Dmax (Brd3 [8]; [17]): ≥ 71%
DC50 (Brd2 [9]): 51 to 500 nM
Dmax (Brd2 [9]; [17]): ≤ 25%
DC50 (Brd3 [10]): ≤ 50 nM
Dmax (Brd3 [10]; [17]): 26 to 50%
DC50 (Brd4 (S) [11]): ≤ 50 nM
Dmax (Brd4 (S) [11]; [17]): ≥ 71%
DC50 (Brd4 (L) [12]): ≤ 50 nM
Dmax (Brd4 (L) [12]; [17]): ≥ 71%
DC50 (Brd4 (S) [13]): ≤ 50 nM
Dmax (Brd4 (S) [13]; [17]): ≥ 71%
DC50 (Brd4 (L) [14]): 51 to 500 nM
Dmax (Brd4 (L) [14]; [17]): 26 to 50%
Dmax (Brd4 (S) [15]): 100%
Dmax (Brd4 (L) [16]): 100%
Structure (SMILES): CCCC(NC(=O)/C(C#N)=C/c1cccc(Br)n1)c1ccc(OCC=NOCC(=O)NCCOCCNC(=O)c2ccc3c(c2)[C@H](Nc2ccc(Cl)cc2)C[C@H](C)N3C(C)=O)cc1 (stereo partly shown) [Example 05IB1]
